Reference: patent US20250346597A1, “CONDENSED HETEROCYCLIC COMPOUNDS AS INHIBITOR OF DIACYLGLYCEROL KINASES” (BEONE MEDICINES I GMBH, priority 2023, published 2025)

How the values were obtained:
DGKζ = DGKζ (Homo sapiens (Human), UniProt Q13574); experiment: Biochemical DGK IC50 assay (ADP-Glo, lipid micelle substrate), DGKζ; details: full length DGKζ 0.5 nM, ATP 140 μM, DAG 80 μM
Summary of the method: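 ADP-Glo luminescence measured ADP made in a 1 h room-temperature reaction. The enzyme was Sf9-expressed, purified full-length human DGKζ, and the substrate was DAG/PS micelles. Assay buffer held 50 mM HEPES, 10 mM MgCl2, 0.01 mM CaCl2, 0.1 mM Na3VO4 and 0.01% BSA. IC50 was derived from activity inhibition over a compound concentration series.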

DGKα = DGKα (Homo sapiens (Human), UniProt P23743); experiment: Biochemical DGK IC50 assay (ADP-Glo, lipid micelle substrate), DGKα; details: full length DGKα […], ATP 140 μM, DAG 80 μM; also: full length DGKα 7.5 nM
Sequence of DGKα (P23743 whole entry): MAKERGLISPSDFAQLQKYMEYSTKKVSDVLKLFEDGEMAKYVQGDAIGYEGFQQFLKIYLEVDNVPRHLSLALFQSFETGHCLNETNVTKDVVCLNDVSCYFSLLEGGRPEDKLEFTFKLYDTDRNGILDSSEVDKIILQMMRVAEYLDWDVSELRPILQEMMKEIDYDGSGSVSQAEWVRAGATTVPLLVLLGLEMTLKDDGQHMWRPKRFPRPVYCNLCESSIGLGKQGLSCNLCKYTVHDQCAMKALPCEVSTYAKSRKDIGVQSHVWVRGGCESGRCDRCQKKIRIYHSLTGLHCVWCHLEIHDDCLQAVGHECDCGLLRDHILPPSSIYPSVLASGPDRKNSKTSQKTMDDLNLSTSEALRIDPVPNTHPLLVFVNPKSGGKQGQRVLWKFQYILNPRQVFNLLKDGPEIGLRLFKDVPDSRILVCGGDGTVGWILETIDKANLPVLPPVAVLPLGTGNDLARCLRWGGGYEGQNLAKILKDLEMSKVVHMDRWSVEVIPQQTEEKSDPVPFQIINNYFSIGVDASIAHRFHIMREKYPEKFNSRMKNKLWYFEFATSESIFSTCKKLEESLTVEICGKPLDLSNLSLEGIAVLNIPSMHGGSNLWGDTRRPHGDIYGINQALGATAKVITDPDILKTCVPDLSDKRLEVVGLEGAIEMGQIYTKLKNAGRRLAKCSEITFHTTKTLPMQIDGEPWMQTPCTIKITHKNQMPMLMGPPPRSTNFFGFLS
Summary of the method: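 Luminescent ADP-Glo detection followed a 1 h room-temperature reaction of full-length DGKα on DAG/PS micelles, in HEPES buffer with 10 mM MgCl2, 0.01 mM CaCl2, 0.1 mM Na3VO4, BSA and Tween-20. IC50 derived from inhibition across increasing compound concentrations.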

Sequence of DGKζ (Q13574 other isoform, or with tags, fused parts or gaps): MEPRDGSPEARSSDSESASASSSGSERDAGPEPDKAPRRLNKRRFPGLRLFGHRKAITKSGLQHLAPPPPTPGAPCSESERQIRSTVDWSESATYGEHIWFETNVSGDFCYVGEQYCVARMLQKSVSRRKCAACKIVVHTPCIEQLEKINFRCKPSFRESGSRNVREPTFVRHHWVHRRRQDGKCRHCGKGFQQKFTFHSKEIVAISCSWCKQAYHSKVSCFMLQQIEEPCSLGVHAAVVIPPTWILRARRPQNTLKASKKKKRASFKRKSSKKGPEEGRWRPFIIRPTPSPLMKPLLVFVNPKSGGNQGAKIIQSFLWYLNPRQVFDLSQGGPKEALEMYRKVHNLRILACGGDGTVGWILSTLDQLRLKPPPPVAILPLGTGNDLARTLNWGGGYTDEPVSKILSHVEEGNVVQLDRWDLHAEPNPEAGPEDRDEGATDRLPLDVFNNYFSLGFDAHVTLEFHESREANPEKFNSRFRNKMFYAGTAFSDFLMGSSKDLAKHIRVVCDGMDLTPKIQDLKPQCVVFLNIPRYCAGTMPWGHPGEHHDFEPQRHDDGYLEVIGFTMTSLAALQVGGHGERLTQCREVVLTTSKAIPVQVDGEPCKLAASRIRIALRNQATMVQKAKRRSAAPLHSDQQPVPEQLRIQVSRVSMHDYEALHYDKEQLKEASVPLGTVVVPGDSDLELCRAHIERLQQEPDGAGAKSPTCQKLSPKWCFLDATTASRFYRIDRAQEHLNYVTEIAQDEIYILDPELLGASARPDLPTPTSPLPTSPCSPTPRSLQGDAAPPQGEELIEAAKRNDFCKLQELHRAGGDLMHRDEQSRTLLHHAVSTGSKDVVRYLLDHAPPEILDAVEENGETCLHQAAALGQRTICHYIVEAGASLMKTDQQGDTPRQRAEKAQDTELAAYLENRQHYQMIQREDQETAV

| SMILES | IC50 (DGKζ) [µM] | IC50 (DGKα) [µM] |
| --- | --- | --- |
| CC[C@H]1CN(C(C)c2ccc3cc(C(F)F)sc3n2)[C@H](CC)CN1c1cc(=O)n(C)c2cn(CC#N)nc12 (single isomer, unassigned) [Compound A144a] | 1.3 | 0.27 |
| CC[C@H]1CN(C(C)c2ccc3cc(C(F)F)sc3n2)[C@H](CC)CN1c1cc(=O)n(C)c2cn(CC#N)nc12 (single isomer, unassigned) [Compound A144b] | 0.135 | 0.018 |
| CC[C@H]1CN(C(C)c2ccc3nc(COC)sc3c2)[C@H](CC)CN1c1cc(=O)n(C)c2cn(CC#N)nc12 (single isomer, unassigned) [Compound A145a] | 0.047 | 0.545 |
| CC[C@H]1CN(C(C)c2ccc3nc(COC)sc3c2)[C@H](CC)CN1c1cc(=O)n(C)c2cn(CC#N)nc12 (single isomer, unassigned) [Compound A145b] | 0.939 | 3.35 |
| CC[C@H]1CN(C(C)c2ccc3nc(OC4CC4)sc3n2)[C@H](CC)CN1c1cc(=O)n(C)c2cn(CC#N)nc12 (single isomer, unassigned) [Compound A146a] | 1.75 | 2.4 |
| CC[C@H]1CN(C(C)c2ccc3nc(OC4CC4)sc3n2)[C@H](CC)CN1c1cc(=O)n(C)c2cn(CC#N)nc12 (single isomer, unassigned) [Compound A146b] | 0.104 | 0.205 |
| CC[C@H]1CN(C(C)c2ccc3nc(OCCF)sc3n2)[C@H](CC)CN1c1cc(=O)n(C)c2cn(CC#N)nc12 (single isomer, unassigned) [Compound A147a] | 0.152 | 0.18 |
| CC[C@H]1CN(C(C)c2ccc3nc(OCCF)sc3n2)[C@H](CC)CN1c1cc(=O)n(C)c2cn(CC#N)nc12 (single isomer, unassigned) [Compound A147b] | 1.51 | 1.57 |
| CC[C@H]1CN(C(C)c2ccc3cc(C(F)F)sc3n2)[C@H](CC)CN1c1nc(=O)n(C)c2cn(CC#N)nc12 (single isomer, unassigned) [Compound A148a] | 2.31 | 1.28 |
| CC[C@H]1CN(C(C)c2ccc3cc(C(F)F)sc3n2)[C@H](CC)CN1c1nc(=O)n(C)c2cn(CC#N)nc12 (single isomer, unassigned) [Compound A148b] | 0.045 | 0.036 |
| CC[C@H]1CN(C(C)c2ccc3nc(C)cn3n2)[C@H](CC)CN1c1cc(=O)n(C)c2cn(CC#N)nc12 (single isomer, unassigned) [Compound A149a] | 2.72 | 1.11 |
| CC[C@H]1CN(C(C)c2ccc3nc(C)cn3n2)[C@H](CC)CN1c1cc(=O)n(C)c2cn(CC#N)nc12 (single isomer, unassigned) [Compound A149b] | 0.093 | 0.043 |
| CC[C@H]1CN(C(C)c2ccc3nc(C)cn3n2)[C@H](CC)CN1c1nc(=O)n(C)c2cn(CC#N)nc12 (single isomer, unassigned) [Compound A150a] | > 10 | 7.14 |
| CC[C@H]1CN(C(C)c2ccc3nc(C)cn3n2)[C@H](CC)CN1c1nc(=O)n(C)c2cn(CC#N)nc12 (single isomer, unassigned) [Compound A150b] | 0.267 | 0.124 |
| CC[C@H]1CN(C(C)c2ccn3ncc(C)c3n2)[C@H](CC)CN1c1cc(=O)n(C)c2cn(CC#N)nc12 (single isomer, unassigned) [Compound A151a] | 4.61 | 7.32 |
| CC[C@H]1CN(C(C)c2ccn3ncc(C)c3n2)[C@H](CC)CN1c1cc(=O)n(C)c2cn(CC#N)nc12 (single isomer, unassigned) [Compound A151b] | 0.0075 | 0.156 |
| CC[C@H]1CN(C(C)c2ccn3nc(C)cc3n2)[C@H](CC)CN1c1cc(=O)n(C)c2cn(CC#N)nc12 (single isomer, unassigned) [Compound A152a] | 3.09 | 1.91 |
| CC[C@H]1CN(C(C)c2ccn3nc(C)cc3n2)[C@H](CC)CN1c1cc(=O)n(C)c2cn(CC#N)nc12 (single isomer, unassigned) [Compound A152b] | 0.0655 | 0.045 |
| CCc1cn2nc(C(C)N3C[C@H](CC)N(c4cc(=O)n(C)c5cn(CC#N)nc45)C[C@H]3CC)ccc2n1 (single isomer, unassigned) [Compound A153a] | > 10 | 2.72 |
| CCc1cn2nc(C(C)N3C[C@H](CC)N(c4cc(=O)n(C)c5cn(CC#N)nc45)C[C@H]3CC)ccc2n1 (single isomer, unassigned) [Compound A153b] | 0.195 | 0.072 |
| CC[C@H]1CN(C(C)c2ccn3nccc3n2)[C@H](CC)CN1c1cc(=O)n(C)c2cn(CC#N)nc12 (single isomer, unassigned) [Compound A154a] | > 10 | 0.505 |
| CC[C@H]1CN(C(C)c2ccn3nccc3n2)[C@H](CC)CN1c1cc(=O)n(C)c2cn(CC#N)nc12 (single isomer, unassigned) [Compound A154b] | 0.055 | 0.012 |

| SMILES | IC50 (DGKζ) [µM] | IC50 (DGKα) [µM] |
| --- | --- | --- |
| Cc1cc2nc(C(C)N3C[C@H](C)N(c4cc(=O)n(C)c5cn(CC#N)nc45)C[C@H]3C)ccc2s1 (single isomer, unassigned) [Compound A155a] | 0.02 | 1.14 |
| Cc1cc2nc(C(C)N3C[C@H](C)N(c4cc(=O)n(C)c5cn(CC#N)nc45)C[C@H]3C)ccc2s1 (single isomer, unassigned) [Compound A155b] | 1.97 | 0.139 |
| CC[C@H]1CN(C(C)c2ccn3nc(C)c(C)c3n2)[C@H](CC)CN1c1cc(=O)n(C)c2cn(CC#N)nc12 (single isomer, unassigned) [Compound A156a] | 5.13 | > 10 |
| CC[C@H]1CN(C(C)c2ccn3nc(C)c(C)c3n2)[C@H](CC)CN1c1cc(=O)n(C)c2cn(CC#N)nc12 (single isomer, unassigned) [Compound A156b] | 0.023 | 0.31 |
| CC[C@H]1CN(C(C)c2ccn3nc(C)cc3n2)[C@H](CC)CN1c1nc(=O)n(C)c2cn(CC#N)nc12 (single isomer, unassigned) [Compound A157a] | > 10 | > 10 |
| CC[C@H]1CN(C(C)c2ccn3nc(C)cc3n2)[C@H](CC)CN1c1nc(=O)n(C)c2cn(CC#N)nc12 (single isomer, unassigned) [Compound A157b] | 0.166 | 0.183 |
| CC[C@H]1CN(C(C)c2ccn3nc(F)cc3n2)[C@H](CC)CN1c1cc(=O)n(C)c2cn(CC#N)nc12 (single isomer, unassigned) [Compound A158a] | > 10 | 0.33 |
| CC[C@H]1CN(C(C)c2ccn3nc(F)cc3n2)[C@H](CC)CN1c1cc(=O)n(C)c2cn(CC#N)nc12 (single isomer, unassigned) [Compound A158b] | 0.091 | 0.021 |
| CC[C@H]1CN(C(C)c2ccn3nccc3c2)[C@H](CC)CN1c1nc(=O)n(C)c2cn(CC#N)nc12 (single isomer, unassigned) [Compound A159a] | 0.056 | 0.038 |
| CC[C@H]1CN(C(C)c2ccn3nccc3c2)[C@H](CC)CN1c1nc(=O)n(C)c2cn(CC#N)nc12 (single isomer, unassigned) [Compound A159b] | 1.12 | 0.04 |
| CC[C@H]1CN(C(C)c2ccn3nc(C)c(F)c3n2)[C@H](CC)CN1c1cc(=O)n(C)c2cn(CC#N)nc12 (single isomer, unassigned) [Compound A160a] | 4.12 | 5.97 |
| CC[C@H]1CN(C(C)c2ccn3nc(C)c(F)c3n2)[C@H](CC)CN1c1cc(=O)n(C)c2cn(CC#N)nc12 (single isomer, unassigned) [Compound A160b] | 0.015 | 0.047 |
| CC[C@H]1CN(C(C)c2ccn3ncc(F)c3n2)[C@H](CC)CN1c1cc(=O)n(C)c2cn(CC#N)nc12 (single isomer, unassigned) [Compound A161a] | > 10 | > 10 |
| CC[C@H]1CN(C(C)c2ccn3ncc(F)c3n2)[C@H](CC)CN1c1cc(=O)n(C)c2cn(CC#N)nc12 (single isomer, unassigned) [Compound A161b] | 0.018 | 0.032 |
| CC[C@H]1CN(C(C)c2ccn3nc(C)cc3c2)[C@H](CC)CN1c1cc(=O)n(C)c2cn(CC#N)nc12 (single isomer, unassigned) [Compound A162a] | 0.051 | 0.104 |
| CC[C@H]1CN(C(C)c2ccn3nc(C)cc3c2)[C@H](CC)CN1c1cc(=O)n(C)c2cn(CC#N)nc12 (single isomer, unassigned) [Compound A162b] | 3.27 | 2.43 |
| CC[C@H]1CN(C(C)c2ccn3nccc3n2)[C@H](CC)CN1c1nc(=O)n(C)c2cn(CC#N)nc12 (single isomer, unassigned) [Compound A163a] | > 10 | 1.9 |
| CC[C@H]1CN(C(C)c2ccn3nccc3n2)[C@H](CC)CN1c1nc(=O)n(C)c2cn(CC#N)nc12 (single isomer, unassigned) [Compound A163b] | 0.426 | 0.071 |
| CC[C@H]1CN(C(C)c2ccn3ncc(F)c3n2)[C@H](CC)CN1c1nc(=O)n(C)c2cn(CC#N)nc12 (single isomer, unassigned) [Compound A164a] | > 10 | 7.3 |
| CC[C@H]1CN(C(C)c2ccn3ncc(F)c3n2)[C@H](CC)CN1c1nc(=O)n(C)c2cn(CC#N)nc12 (single isomer, unassigned) [Compound A164b] | 0.088 | 0.134 |
| CC[C@H]1CN(C(C)c2ccn3ncc(F)c3c2)[C@H](CC)CN1c1cc(=O)n(C)c2cn(CC#N)nc12 (single isomer, unassigned) [Compound A165a] | 0.012 | 0.096 |
